Data: patent US20240166643A1, “IMIDAZO[1,2-A]PYRIDINE COMPOUNDS AND THEIR USE IN THERAPY” (Imperial College Innovations Limited, priority 2020, published 2024)

How the values were obtained:
BL-41 cells [1] = assay: Metabolic activity assay (MTS assay) in BL-41 cell line; assay type: cell-based; settings: Homo sapiens, 72 h
SU-DHL-10 cells = assay: Cell cytotoxicity in SU-DHL-10 cell line (CellTiter-Glo); assay type: cell-based; settings: Homo sapiens, SU-DHL10; CellTiter-Glo, 48 h; read-out: SU-DHL-10 EC50
BL-41 cells [2] = assay: CellTiter-Blue assay, BL-41; assay type: cell-based; settings: Homo sapiens, BL41 cell line, 72 hours
Protocol: (§1) Assay (d): CellTiter-Blue® Assay
(§2) BL-41, Ramos, Raji and A20 cells (obtained from Cell Services at the Crick Institute; cell type of BL-41, Ramos, Raji: Burkitt's Lymphoma; cell type of A20: murine B cell lymphoma cell line) were grown in RPMI-1640 media in 5% CO2 (supplemented with 10% FBS). The cells were seeded in 96-well plates, 24 h prior to treatment. Cell suspensions were prepared by adjusting the cell density to the appropriate concentration (as stated in the Table 9 below) and 50 μL of the cell suspension was transferred to wells B-G in columns 2-11 of a 96-well plate. […]
(§3) 72 hours later, 20 μl/well CellTiter-Blue® (G8081, Promega) were added to the plates according to the manufacturer's protocol, the plate was incubated at 37° C. for 2 or 3-4 h (A20, Ramos and Raji: 2 h; BL-41 and EL-4: 3-4 h), followed by measuring the absorbance per well at 570 nm using an EnVision plate reader. […] The metabolic activity was calculated as a percentage relative to the positive control. The EC50 values were calculated using GraphPad Prism.

EL4 cells = assay: CellTiter-Blue assay, EL4; assay type: cell-based; settings: EL4 cell line, 72 hours
Protocol: as §1
Cell suspensions were prepared by adjusting the cell density to the appropriate concentration (as stated in the Table 10 below) and 50 μL of the cell suspension was transferred to wells B-G in columns 2-11 of a 96-well plate.
For each the BL-41, Ramos, Raji, A20 cell lines and EL4, twenty-four hours later, 50 μL of the growth media for the respective cell line (positive control), a mix of Puromycin and Staurosporine (negative controls, final concentration 10 μg/mL and 1 μM respectively) or different concentrations of each Example compound being tested (dilution factor=3, starting at μM, final concentration in the plate starting from 10 μM) were prepared and added to a well of the 96-well plate. The plate was incubated at 37° C. with 5% CO2 level.
72 hours later, 20 μl/well CellTiter-Blue® (G8081, Promega) were added to the plates according to the manufacturer's protocol, the plate was incubated at 37° C. for 2 or 3-4 h (A20, Ramos and Raji: 2 h; BL-41 and EL-4: 3-4 h), followed by measuring the absorbance per well at 570 nm using an EnVision plate reader. The negative control values were subtracted from every value. The metabolic activity was calculated as a percentage relative to the positive control. The EC50 values were calculated using GraphPad Prism.

Ramos cells = assay: CellTiter-Blue assay, Ramos; assay type: cell-based; settings: Homo sapiens, Ramos cell line, 72 hours
Protocol: as §1, §2, §3

Raji cells = assay: CellTiter-Blue assay, Raji; assay type: cell-based; settings: Homo sapiens, Raji cell line, 72 hours
Protocol: as §1, §2, §3

A20 cells = assay: CellTiter-Blue assay, A20; assay type: cell-based, murine; settings: Mus musculus, A20 cell line, 72 hours
Protocol: as §1, §2, §3

[3] = Rat clearance and bioavailability (iv and oral dosing); assay type: in vivo; settings: male, Sprague-Dawley, plasma, administered as a single compound
[4] = system: Plasmodium falciparum 3D7; assay: SYBR Green assay, Plasmodium falciparum strain 3D7; assay type: cell-based; settings: P. falciparum strain 3D7, 96 h incubation, read-out: Pf EC50 strain 3D7
DOHH-2 tumor cells = assay: Mouse xenograft, subcutaneous DOHH-2 Lymphoma Model; assay type: in vivo; settings: compared to vehicle
Protocol: Assay (i): Mouse Xenograft Protocol
The in vivo efficacy was assess in a subcutaneous xenograft DOHH-2 Lymphoma Model using Female 6-8 week old CB17/SCID Mice. […] The test compound administration started once the mean tumor size reached approximately 100-150 mm3. Compounds were administered either IP (vehicle 58% Na2HPO4 buffer (10 mM) (pH4.5)+40% PEG400+2% DMSO) or orally (vehicle Na2HPO4 buffer (10 mM) (pH 4.5)+0.2% tween 80). Tumor volumes were measured in two dimensions using a caliper, and the volume expressed in mm3 using the formula: V=(L×W×W)/2, where V is tumor volume, L is tumor length (the longest tumor dimension) and W is tumor width (the longest tumor dimension perpendicular to L).
Mice were dosed with Example 2 orally (50 mg/kg) once a day for 9 consecutive days (FIG. 5a), or Example 2 was dosed intraperitonally (25 mg/kg) in a cycle consisting of administration twice a day for three days followed by a four day no-dosing period (FIG. 5b). The cycle was repeated three times.
Mice were dosed with Example 129 intraperitonally (25 mg/kg) in a cycle consisting of administration twice a day for three days followed by a four day no-dosing period (Figure Sc). The cycle was repeated three times.
The protocol and any amendment(s) or procedures involving the care and use of animals in this study were reviewed and approved by the Institutional Animal Care and Use Committee (IACUC) of CrownBio prior to execution. During the study, the care and use of animals was conducted in accordance with the regulations of the Association for Assessment and Accreditation of Laboratory Animal Care (AAALAC).

in vitro = settings: male, Sprague-Dawley, rat, pooled cryopreserved rat hepatocytes, pH 7.4
Human NMT1 (HsNMT1) = Human NMT1 (HsNMT1) (Homo sapiens, UniProt P30419); assay: biochemical
Human NMT1 (HsNMT1), sequence (P30419 whole entry, looked up): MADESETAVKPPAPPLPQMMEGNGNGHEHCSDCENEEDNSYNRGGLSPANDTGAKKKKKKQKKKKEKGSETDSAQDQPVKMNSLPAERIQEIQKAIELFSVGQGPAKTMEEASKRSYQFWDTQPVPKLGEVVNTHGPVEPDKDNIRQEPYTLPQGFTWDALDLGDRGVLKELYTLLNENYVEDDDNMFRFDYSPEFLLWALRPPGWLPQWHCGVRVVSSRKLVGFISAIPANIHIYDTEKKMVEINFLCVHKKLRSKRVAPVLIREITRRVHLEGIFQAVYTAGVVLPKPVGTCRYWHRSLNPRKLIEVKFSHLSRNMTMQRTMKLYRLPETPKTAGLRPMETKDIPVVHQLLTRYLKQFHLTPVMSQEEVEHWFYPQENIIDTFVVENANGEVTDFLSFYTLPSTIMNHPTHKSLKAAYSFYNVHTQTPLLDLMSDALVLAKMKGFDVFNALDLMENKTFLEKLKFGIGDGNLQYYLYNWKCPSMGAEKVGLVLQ

[5] = target: Plasmodium vivax (Pv) NMT (Plasmodium vivax (strain Salvador I), UniProt A5K1A2); assay: biochemical
Plasmodium vivax (Pv) NMT, sequence (A5K1A2 1-410): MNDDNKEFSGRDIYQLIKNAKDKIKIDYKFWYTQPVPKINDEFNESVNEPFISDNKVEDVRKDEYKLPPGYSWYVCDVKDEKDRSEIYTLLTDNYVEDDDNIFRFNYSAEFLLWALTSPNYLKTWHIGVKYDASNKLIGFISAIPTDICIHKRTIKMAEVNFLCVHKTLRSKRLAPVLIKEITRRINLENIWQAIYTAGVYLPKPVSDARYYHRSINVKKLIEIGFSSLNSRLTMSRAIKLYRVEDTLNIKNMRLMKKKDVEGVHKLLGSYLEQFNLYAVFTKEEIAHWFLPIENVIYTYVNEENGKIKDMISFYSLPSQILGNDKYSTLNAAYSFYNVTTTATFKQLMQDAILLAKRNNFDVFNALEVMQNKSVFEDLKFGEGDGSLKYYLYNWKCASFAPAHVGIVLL

[6] = target: Plasmodium falciparum NMT (Plasmodium falciparum (isolate 3D7), UniProt Q8ILW6); settings: cited from earlier work

SMILES | EC50 (BL-41 cells [1]) [nM] | EC50 (SU-DHL-10 cells) [nM] | EC50 (BL-41 cells [2]) [nM] | EC50 (EL4 cells) [nM] | EC50 (Ramos cells) [nM] | EC50 (Raji cells) [nM] | EC50 (A20 cells) [nM] | half-life ([3]; iv 1 mg/kg, read-out: Rat iv t1/2 (converted)) [h] | bioavailability ([3]; oral 10 mg/kg) [%] | EC50 [4] [nM] | tumour volume (DOHH-2 tumor cells; intraperitoneally 25 mg/kg twice a day for three days then four day no-dosing, cycle repeated three times) | tumour volume (DOHH-2 tumor cells; orally 50 mg/kg once a day for 9 consecutive days) | half-life at 1 µM (in vitro) [h] | IC50 (Human NMT1 (HsNMT1)) [nM] | IC50 [5] [nM] | selective activity for Plasmodium falciparum NMT over both human NMTs [6]
C[C@H]1CN(C)CCN1c1ncc(Cl)c(N2CC(C(=O)NC(C)(C)c3cnc4ccccn34)C2)n1 [Example 2, 1-(5-chloro-2-[(2S)-2,4-dimethylpiperazin-1-yl]pyrimidin-4-yl)-N-(2-{imidazo[1,2-a]pyridin-3-yl}propan-2-yl)azetidine-3-carboxamide] | 220 | 51 | 557 | 139 | 218 | 556 | 600 | 3.5 | 28 | 2.4 | significant reduction in tumour volume | significant reduction in tumour volume | 1.52 | 2.7 | 4.1 | –
Cc1cnc(CNC(=O)C2CN(c3nc(NCCN(C)C)ncc3Cl)C2)cn1 [PF-03531814, 1-(5-chloro-2-{[2-(dimethylamino)ethyl]amino}pyrimidin-4-yl)-N-[(5-methylpyrazin-2-yl)methyl]azetidine-3-carboxamide] | – | – | – | – | – | – | – | – | – | – | – | – | – | – | – | selective activity
